In one series the test system is S. mansoni adult worms. Description: Schistosomicidal activity ex vivo, adult worms (Cell Titer Glo), alone or with channel blockers. The format is cell-based. To be noted: for LD50 ex vivo S. mansoni adult: 24 h exposure. The protocol: Three-week old, female Swiss-Webster mice obtained from the Charles River were housed in the Comparative Research Center of Rush University Medical Center. Mice were infected by percutaneous tail exposure to about 200 S. mansoni or 50 S. japonicum cercaria for adult worms and about 1000 cercaria for juvenile S. mansoni worms through natural transdermal penetration of the cercariae for 1 h[81].
DMSO formulated compounds were diluted with phenol red free M199 medium or RPMI medium for NTS or juvenile and adult worms, respectively, at <1% DMSO final concentrations. NTS, juvenile and adult worms from overnight cultures were tested against compounds in triplicate. Controls were treated with DMSO alone or 5 µM AF as a positive control in appropriate medium. […] Schistosome viabilities in the presence of the compounds were assessed using this formula: % Viability = Averages of Test / Averages of DMSO Control x 100.
(In general: In ATP-based viability assays light output follows the ATP content of the culture.)

Another series has as its target T1, Human TrxR1 (Homo sapiens, UniProt Q16881).
T1 construct: made in house
T1 sequence (Q16881 1-499 isoform Q16881-5): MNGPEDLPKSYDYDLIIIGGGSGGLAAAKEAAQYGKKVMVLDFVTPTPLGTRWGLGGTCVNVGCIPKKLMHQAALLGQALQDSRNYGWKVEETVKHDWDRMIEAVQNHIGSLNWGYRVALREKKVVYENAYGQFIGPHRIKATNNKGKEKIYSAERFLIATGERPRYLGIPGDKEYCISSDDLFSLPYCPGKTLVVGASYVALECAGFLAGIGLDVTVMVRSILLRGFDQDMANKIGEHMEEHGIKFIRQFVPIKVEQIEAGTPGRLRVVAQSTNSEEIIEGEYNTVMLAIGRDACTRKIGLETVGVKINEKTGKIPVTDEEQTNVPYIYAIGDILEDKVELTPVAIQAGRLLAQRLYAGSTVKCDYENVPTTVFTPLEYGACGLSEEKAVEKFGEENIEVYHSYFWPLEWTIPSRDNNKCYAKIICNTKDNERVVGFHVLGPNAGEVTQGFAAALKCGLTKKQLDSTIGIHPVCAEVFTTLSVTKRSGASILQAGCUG
Nature of the series: Human TrxR1 enzyme inhibition (DTNB reduction). The format is biochemical. Particulars: for IC50: 15 min preincubation (enzyme + 100 µM NADPH + compound), read-out: Human TrxR1 IC50.

The next series addresses T2, Human GR (Homo sapiens, UniProt P00390).
T2 construct: made in house
T2 sequence (P00390 44-522): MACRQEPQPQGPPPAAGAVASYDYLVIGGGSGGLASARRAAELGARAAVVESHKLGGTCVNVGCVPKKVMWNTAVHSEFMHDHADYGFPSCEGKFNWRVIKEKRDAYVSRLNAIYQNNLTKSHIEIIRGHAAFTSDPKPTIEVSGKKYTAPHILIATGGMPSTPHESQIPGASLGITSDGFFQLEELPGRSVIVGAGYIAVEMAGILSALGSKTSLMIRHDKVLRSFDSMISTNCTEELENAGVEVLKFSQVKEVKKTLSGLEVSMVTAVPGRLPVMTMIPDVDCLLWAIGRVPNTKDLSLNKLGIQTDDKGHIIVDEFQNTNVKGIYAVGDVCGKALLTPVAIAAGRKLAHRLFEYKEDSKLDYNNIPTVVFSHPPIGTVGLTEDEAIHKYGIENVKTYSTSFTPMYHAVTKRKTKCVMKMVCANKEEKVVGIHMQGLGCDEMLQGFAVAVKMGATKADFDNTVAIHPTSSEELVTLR
Nature of the series: Human GR enzyme inhibition (GSSG reduction, NADPH oxidation). The format is biochemical. To be noted: for inhibition at 5 µM / inhibition at 15 µM / inhibition at 30 µM / inhibition at 66.7 µM: hGR; for inhibition at 5 µM: compound 5 µM; for inhibition at 15 µM: compound 15 µM; for inhibition at 15 µM / inhibition at 30 µM / inhibition at 66.7 µM: read-out: % inhibition; for inhibition at 30 µM: compound 30 µM; for inhibition at 66.7 µM: compound 66.7 µM.

The next series concerns Vero cells. Description: Cytotoxicity in mammalian cells (Cell Titer Glo). Type of series: cell-based. Particulars: for LD50 ex vivo VERO: African green monkey, 24 h; for EC50: Chlorocebus sabaeus, Vero, estimate from raw data, read-out: EC50 viability of Vero cells. How it is done:
Following overnight incubation, formulated DMSO-compound stock solutions were diluted with DMEM at <1% DMSO final concentrations. […] Vero cells treated similarly with different concentrations of PZQ, MZM and AF (Cayman Chemicals) were used as positive controls.

Several values for one entry are separate records, joined by “and”; a condition that tells them apart may be missing. Equal entries are not always repeated. Where two headings read alike, the source gives them in different places. Marks after values point to notes of the source that are not given here.

As usually defined, the viability is a per cent measure of how many cells are alive, often set against a control. A word on the IC50: it is the midpoint of a concentration-inhibition curve. As a reminder, the inhibition is the drop in the measured response relative to a control, in per cent. A word on the EC50: it is the concentration that produces a half-maximal response.

With `C[C@@H]1[C@H]2C[C@@H](C[C@H]1NCc1nc3ccccc3n1C1CCCCCC1)C2(C)C` [Compound 8], the “LD50 ex vivo S. mansoni adult” value with S. mansoni adult worms (compound alone) is 22.3 ± 0.2 µM and 22.3 ± 0.20 µM. The viability at 10 µM stood at 85.4% with S. mansoni adult worms (Schistosoma mansoni, 10 µM, compound alone, read-out: % viability, adult worms) and 85.4% in the series with S. mansoni adult worms (Schistosoma mansoni, S. mansoni adult worms, Conc. 10 µM, read-out: % viability). Besides, the viability at 30 µM in the series on S. mansoni adult worms (Schistosoma mansoni, 30 µM, compound alone, read-out: % viability, adult worms) worked out at 30.6%; in the series with S. mansoni adult worms (Schistosoma mansoni, S. mansoni adult worms, Conc. 30 µM, read-out: % viability), 30.6%. For the same compound, the viability at 50 µM with S. mansoni adult worms (Schistosoma mansoni, 50 µM, compound alone, read-out: % viability, adult worms) was determined as 14%; with S. mansoni adult worms (Schistosoma mansoni, S. mansoni adult worms, Conc. 50 µM, read-out: % viability), 14%. Further, the viability at 100 µM amounted to 6.59% in the series with S. mansoni adult worms (Schistosoma mansoni, 100 µM, compound alone, read-out: % viability, adult worms) and 6.59% in the series with S. mansoni adult worms (Schistosoma mansoni, S. mansoni adult worms, Conc. 100 µM, read-out: % viability). Besides, the IC50 at Human TrxR1 is 4.9 ± 1.72 µM. In addition, the inhibition at 2.5 µM at Human TrxR1 (hsTrxR, 15 minutes pre-incubation, compound 2.5 µM) is 37.2%. In addition, the inhibition at 5 µM is 49.7% at Human TrxR1 (hsTrxR, 15 minutes pre-incubation, compound 5 µM); -0.362% on Human GR (15 minutes pre-incubation); -1.4% against Human GR (6 hours pre-incubation). For the same compound, on Human TrxR1 (hsTrxR, 15 minutes pre-incubation, compound 10 µM), the inhibition at 10 µM is 61.6%. In addition, the “Human GR (inhibition at 66.7 µM)” value on Human GR is reported as “n.i”. Also, the inhibition at 15 µM at Human GR (15 minutes pre-incubation) was -0.934%; on Human GR (6 hours pre-incubation) it was -4.52%. The inhibition at 30 µM at Human GR (15 minutes pre-incubation) was -0.111%; on Human GR (6 hours pre-incubation), -1.03%. The inhibition at 66.7 µM on Human GR (15 minutes pre-incubation) was -0.91%; on Human GR (6 hours pre-incubation), 9.42%. Further, in the series with Vero cells, the “LD50 ex vivo VERO” value stood at 32.7 ± 2.99 µM. Besides, the 50% effective concentration (EC50) in the series with Vero cells is greater than 50 µM.

Consider `CC1C(NCc2cn(C3OCC(O)C(O)C3O)c3ccccc23)CC2CC1C2(C)C` (stereo not shown) [Compound 9], for which the “LD50 ex vivo S. mansoni adult” value in the series on S. mansoni adult worms (compound alone) was >100^a µM and >100 µM. The viability at 5 µM in the series with S. mansoni adult worms (Schistosoma mansoni, S. mansoni adult worms, 5 µM, relative to Worm + RPMI control, read-out: % viability) stood at 99.2%. The viability at 15 µM in the series on S. mansoni adult worms (Schistosoma mansoni, S. mansoni adult worms, 15 µM, relative to Worm + RPMI control, read-out: % viability) worked out at 91.1%. Further, the viability at 30 µM in the series with S. mansoni adult worms (Schistosoma mansoni, S. mansoni adult worms, 30 µM, relative to Worm + RPMI control, read-out: % viability) was found to be 88.8%. In addition, the viability at 50 µM in the series with S. mansoni adult worms (Schistosoma mansoni, S. mansoni adult worms, 50 µM, relative to Worm + RPMI control, read-out: % viability) worked out at 83.3%. In addition, in the series with S. mansoni adult worms (Schistosoma mansoni, S. mansoni adult worms, 100 µM, relative to Worm + RPMI control, read-out: % viability), the viability at 100 µM was 78.4%. Moreover, the IC50 at Human TrxR1 was 70.5 ± 11.4 µM. For the same compound, the inhibition at 15 µM was 5.09% on Human TrxR1 (hsTrxR, 15 minutes pre-incubation, compound 15 µM); -0.142% at Human GR (15 minutes pre-incubation); -0.844% at Human GR (6 hours pre-incubation). Also, the inhibition at 30 µM against Human TrxR1 (hsTrxR, 15 minutes pre-incubation, compound 30 µM) is 8.68%; on Human GR (15 minutes pre-incubation) it was -2.5%; on Human GR (6 hours pre-incubation) it was -1.45%. Besides, the inhibition at 66.7 µM was 14.5% at Human TrxR1 (hsTrxR, 15 minutes pre-incubation, compound 66.7 µM, read-out: % inhibition); -1.69% on Human GR (15 minutes pre-incubation); -3.11% at Human GR (6 hours pre-incubation). Further, the “Human GR (inhibition at 66.7 µM)” value on Human GR is recorded as “n.i”. The “LD50 ex vivo VERO” value in the series on Vero cells is >50^a µM. Further, in the series with Vero cells, the EC50 is greater than 200 µM.

Source of the values: publication PMC10287695, “Non-covalent inhibitors of thioredoxin glutathione reductase with schistosomicidal activity in vivo” (Nature Communications, 2023).
